Source: patent US10322132B2, “Prevention or treatment of uratic or gouty diseases” (SHANTON PHARMA CO., LTD., priority 2015, dated 2019)

Test system: TNF-α
Test: LPS-induced TNF-α release
Format: in vivo, Male BALB/C mice
Experimental: The experiment was conducted by reference to Pascale Gaillard, Isabelle Jeanclaude-Etter, etc. Design and Synthesis of the First Generation of Novel Potent, Selective, and in Vivo Active (Benzothiazol-2-yl)acetonitrile
BALB/C mice were raised in the SPF-grade animal room for 1 week, and were then randomly divided into the corresponding model group and the administration groups according to the body weight. The […] were administered with the solvent or the test samples by subcutaneous injection at a dose of 10 mg/kg. The rats were administered with LPS by intraperitoneal injection at a dose of 15 mg/kg 30 min after the administration of the solvent or the test samples. The mice were anesthetized with sodium pentobarbital (45 mg/kg by intraperitoneal injection) 1 h after LPS administration. The blood was collected by cardiac puncture, and the content of TNF-α (tumor necrosis factor) in plasma was measured with a Mouse TNF-α Elisa Ready-set-go kit.

## CCCCCn1c(=O)n(C)c(=O)c2[nH]c(Cl)nc21 [Compound D, 8-chloro-1-methyl-3-pentyl-3,7-dihydro-1H-purine-2,6-dione]
TNF-α in plasma vs model group, 10 mg/kg subcutaneous
  inhibition (%): 29.6%
Compared with the model group
  effect on content of TNF-α in the plasma of the test mice (in words): significantly reduce
plasma, 10 mg/kg subcutaneous 30 min before LPS 15 mg/kg i.p., 1 h after LPS
  Content of TNF-α: 1124 pg/mL
